Experimental data published in ChEMBL document CHEMBL1201862, “PubChem BioAssay data set” (2004).
“And” between values parts separate entries of the source, which are not always exact repeats. Equal entries are not always repeated. Structures can show the parent of a compound that is named as a salt.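 Values below derive from 48-hour exposures of cells grown in 96-well plates, with endpoints linearly interpolated between the two concentrations bracketing the appropriate inhibition level. At the GI50, growth is halved.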 The source made the active and inactive calls. Rule as the data show it: active = GI50 up to about 1.1 µM and inactive = higher.

Legend:
Assay in all cases: DTP human tumour cell line panel, 48 h
[1] = system: A549
[2] = system: HOP-62
[3] = system: MCF7
[4] = system: DU-145
[5] = system: HCT-15
[6] = system: MDA-MB-231
[7] = system: SNB-75
[8] = system: TK-10
[9] = system: LOX IMVI
[10] = system: SF-295
[11] = system: MDA-N
[12] = system: BT-549
[13] = system: SK-MEL-5
[14] = system: KM-20L2
[15] = system: 786-0
[16] = system: Malme-3M
[17] = system: NCI-H226
[18] = system: HL-60
[19] = system: U-251
[20] = system: T47D

| SMILES | GI50 [1] | GI50 [2] | GI50 [3] | GI50 [4] | GI50 [5] | GI50 [6] | GI50 [7] | GI50 [8] | GI50 [9] | GI50 [10] | GI50 [11] | GI50 [12] | GI50 [13] | GI50 [14] | GI50 [15] | GI50 [16] | GI50 [17] | GI50 [18] | GI50 [19] | GI50 [20] |
| --- | --- | --- | --- | --- | --- | --- | --- | --- | --- | --- | --- | --- | --- | --- | --- | --- | --- | --- | --- | --- |
| Clc1ccc(C(c2ccccc2Cl)C(Cl)Cl)cc1 (stereo not given) [MITOTANE] | 15.1 µM (inactive) | 18.2 µM (inactive) | 19.2 µM (inactive) | 3.3 µM (inactive) | 15.8 µM | 3.39 µM (inactive) | 15.2 µM (inactive) | 20 µM (inactive) | 21.3 µM (inactive) | 16.2 µM (inactive) | 18 µM (inactive) | 1.59 µM (inactive) | 15.8 µM (inactive) | 16.9 µM (inactive) | 19.2 µM (inactive) | 14.1 µM (inactive) | 16.5 µM (inactive) | 18.7 µM (inactive) | 16.6 µM (inactive) | 1.64 µM (inactive) |
| Cn1cc2ccccc2c1-c1nc(N)nc(F)n1 | > 100 µM (inactive) | > 100 µM (inactive) |  |  | > 100 µM |  | 47.3 µM (inactive) | > 100 µM (inactive) | > 100 µM (inactive) | 50.9 µM (inactive) |  |  | > 100 µM (inactive) | > 100 µM (inactive) | > 100 µM (inactive) | 56.1 µM (inactive) | 29.5 µM (inactive) | > 100 µM (inactive) | > 100 µM (inactive) |  |
| O=C1C(Cl)C(c2ccc(Cl)cc2)N1n1cnc2ccccc2c1=O (stereo not given) | > 100 µM (inactive) | > 100 µM (inactive) |  |  | 92 µM |  | 26.2 µM (inactive) | > 100 µM (inactive) | 70.5 µM (inactive) | 82.8 µM (inactive) |  |  | > 100 µM (inactive) | > 100 µM (inactive) | > 100 µM (inactive) | > 100 µM (inactive) | > 100 µM (inactive) | 39 µM (inactive) | > 100 µM (inactive) |  |
| CN(C)CCCN1c2ccccc2Sc2ccc(C(F)(F)F)cc21 [TRIFLUPROMAZINE HYDROCHLORIDE] | 17 µM (inactive) and 16.9 µM (inactive) |  | 16.1 µM (inactive) | 17.2 µM (inactive) | 17.1 µM and 16.1 µM | 12.9 µM (inactive) | 12.1 µM (inactive) and 12.2 µM (inactive) | 17.4 µM (inactive) and 15.2 µM (inactive) | 15.5 µM (inactive) and 13.9 µM (inactive) | 15.3 µM (inactive) and 16.8 µM (inactive) | 13.4 µM (inactive) | 12.8 µM (inactive) | 17.4 µM (inactive) | 11.3 µM (inactive) | 14.7 µM (inactive) and 14.1 µM (inactive) | 16.4 µM (inactive) and 14.9 µM (inactive) |  | 15.7 µM (inactive) and 12.7 µM (inactive) | 14.2 µM (inactive) and 15.7 µM (inactive) | 14.6 µM (inactive) |
| Nc1nc[n+](Cc2ccccc2CCO)c2[nH]cnc12 | > 100 µM (inactive) | > 100 µM (inactive) |  |  | > 100 µM |  | > 100 µM (inactive) | > 100 µM (inactive) | > 100 µM (inactive) | > 100 µM (inactive) |  |  | > 100 µM (inactive) | > 100 µM (inactive) | > 100 µM (inactive) | > 100 µM (inactive) | 36.5 µM (inactive) | > 100 µM (inactive) | > 100 µM (inactive) |  |
